From the NIST ThermoML archive (doi:10.1021/acs.jced.8b00132)
“And” between values parts separate entries of the source, which are not always exact repeats. Identical values can stand only once. Numbers after ± are expanded uncertainties.

Conditions: transient hot wire

## O=C(C(F)(F)C(F)(F)F)C(F)(C(F)(F)F)C(F)(F)F [dodecafluoro-2-methylpentan-3-one]
417.43 K, 35735 kPa, Liquid
  thermal conductivity: 0.06006 ± 0.0012 W/m/K
417.44 K, 35746 kPa, Liquid
  thermal conductivity: 0.06008 ± 0.0012 W/m/K
417.45 K, 995 kPa, Gas
  thermal conductivity: 0.022 ± 0.0014 W/m/K
417.46 K, 24856 kPa, Liquid
  thermal conductivity: 0.05553 ± 0.0011 W/m/K
417.46 K, 24868 kPa, Liquid
  thermal conductivity: 0.05553 ± 0.0011 W/m/K
417.48 K, 3782 kPa, Liquid
  thermal conductivity: 0.04235 ± 0.00089 W/m/K
417.49 K, 3785 kPa, Liquid
  thermal conductivity: 0.04236 ± 0.00089 W/m/K
417.5 K, 788 kPa, Gas
  thermal conductivity: 0.02105 ± 0.0013 W/m/K and 0.02104 ± 0.0013 W/m/K
417.52 K, 10593 kPa, Liquid
  thermal conductivity: 0.04792 ± 0.001 W/m/K
417.52 K, 10594 kPa, Liquid
  thermal conductivity: 0.04785 ± 0.001 W/m/K
417.53 K, 2204 kPa, Liquid
  thermal conductivity: 0.04067 ± 0.00085 W/m/K
417.53 K, 2206 kPa, Liquid
  thermal conductivity: 0.04059 ± 0.00085 W/m/K
417.56 K, 372 kPa, Gas
  thermal conductivity: 0.02094 ± 0.0013 W/m/K
417.59 K, 16285 kPa, Liquid
  thermal conductivity: 0.05128 ± 0.0011 W/m/K
417.59 K, 35671 kPa, Liquid
  thermal conductivity: 0.06014 ± 0.0012 W/m/K
417.59 K, 35701 kPa, Liquid
  thermal conductivity: 0.06019 ± 0.0012 W/m/K
417.6 K, 591 kPa, Gas
  thermal conductivity: 0.02077 ± 0.0013 W/m/K
417.6 K, 1024 kPa, Gas
  thermal conductivity: 0.0225 ± 0.00075 W/m/K
417.6 K, 16284 kPa, Liquid
  thermal conductivity: 0.05126 ± 0.0011 W/m/K
417.61 K, 594 kPa, Gas
  thermal conductivity: 0.02078 ± 0.0013 W/m/K
417.61 K, 6424 kPa, Liquid
  thermal conductivity: 0.04484 ± 0.00094 W/m/K
417.62 K, 6421 kPa, Liquid
  thermal conductivity: 0.0448 ± 0.00094 W/m/K
417.65 K, 994 kPa, Gas
  thermal conductivity: 0.02218 ± 0.0014 W/m/K
417.66 K, 995 kPa, Gas
  thermal conductivity: 0.02218 ± 0.0014 W/m/K
417.68 K, 785 kPa, Gas
  thermal conductivity: 0.02107 ± 0.0013 W/m/K
417.7 K, 788 kPa, Gas
  thermal conductivity: 0.02117 ± 0.0013 W/m/K
417.7 K, 3782 kPa, Liquid
  thermal conductivity: 0.04218 ± 0.00088 W/m/K and 0.04238 ± 0.00089 W/m/K
417.71 K, 10585 kPa, Liquid
  thermal conductivity: 0.04785 ± 0.001 W/m/K
417.73 K, 10592 kPa, Liquid
  thermal conductivity: 0.04786 ± 0.001 W/m/K
417.76 K, 371 kPa, Gas
  thermal conductivity: 0.02099 ± 0.0013 W/m/K
417.76 K, 372 kPa, Gas
  thermal conductivity: 0.0209 ± 0.0013 W/m/K
417.82 K, 589 kPa, Gas
  thermal conductivity: 0.02086 ± 0.0013 W/m/K
417.82 K, 6421 kPa, Liquid
  thermal conductivity: 0.0448 ± 0.00094 W/m/K
417.84 K, 994 kPa, Gas
  thermal conductivity: 0.02265 ± 0.0014 W/m/K
417.84 K, 6421 kPa, Liquid
  thermal conductivity: 0.04481 ± 0.00094 W/m/K
417.85 K, 994 kPa, Gas
  thermal conductivity: 0.02241 ± 0.0014 W/m/K
417.88 K, 785 kPa, Gas
  thermal conductivity: 0.02124 ± 0.0013 W/m/K
417.93 K, 3782 kPa, Liquid
  thermal conductivity: 0.04241 ± 0.00089 W/m/K
417.93 K, 3784 kPa, Liquid
  thermal conductivity: 0.04244 ± 0.00089 W/m/K
417.95 K, 369 kPa, Gas
  thermal conductivity: 0.02101 ± 0.0013 W/m/K
417.95 K, 370 kPa, Gas
  thermal conductivity: 0.02093 ± 0.0013 W/m/K
418.05 K, 588 kPa, Gas
  thermal conductivity: 0.02096 ± 0.0013 W/m/K
418.08 K, 784 kPa, Gas
  thermal conductivity: 0.02089 ± 0.0013 W/m/K
418.16 K, 367 kPa, Gas
  thermal conductivity: 0.02097 ± 0.0013 W/m/K
418.16 K, 369 kPa, Gas
  thermal conductivity: 0.02096 ± 0.0013 W/m/K
418.29 K, 587 kPa, Gas
  thermal conductivity: 0.02094 ± 0.0013 W/m/K
418.3 K, 587 kPa, Gas
  thermal conductivity: 0.02092 ± 0.0013 W/m/K
418.46 K, 367 kPa, Gas
  thermal conductivity: 0.02103 ± 0.0013 W/m/K
418.47 K, 366 kPa, Gas
  thermal conductivity: 0.02102 ± 0.0013 W/m/K
432.13 K, 1545 kPa, Gas
  thermal conductivity: 0.02726 ± 0.0017 W/m/K
432.18 K, 1546 kPa, Gas
  thermal conductivity: 0.02748 ± 0.0017 W/m/K
432.2 K, 1545 kPa, Gas
  thermal conductivity: 0.02732 ± 0.0017 W/m/K
432.24 K, 1546 kPa, Gas
  thermal conductivity: 0.02788 ± 0.0018 W/m/K
432.25 K, 1546 kPa, Gas
  thermal conductivity: 0.02765 ± 0.0018 W/m/K
432.26 K, 1546 kPa, Gas
  thermal conductivity: 0.0279 ± 0.0018 W/m/K
432.38 K, 2634 kPa, Liquid
  thermal conductivity: 0.03887 ± 0.00082 W/m/K
432.38 K, 2635 kPa, Liquid
  thermal conductivity: 0.0388 ± 0.00082 W/m/K
432.42 K, 1424 kPa, Gas
  thermal conductivity: 0.02465 ± 0.0015 W/m/K
432.43 K, 1423 kPa, Gas
  thermal conductivity: 0.02466 ± 0.0015 W/m/K
432.46 K, 1706 kPa, Liquid
  thermal conductivity: 0.03696 ± 0.00079 W/m/K
432.46 K, 1978 kPa, Liquid
  thermal conductivity: 0.03766 ± 0.0008 W/m/K
432.47 K, 1706 kPa, Liquid
  thermal conductivity: 0.03707 ± 0.00079 W/m/K
432.47 K, 1710 kPa, Liquid
  thermal conductivity: 0.03705 ± 0.00079 W/m/K
432.47 K, 1979 kPa, Liquid
  thermal conductivity: 0.03775 ± 0.0008 W/m/K
432.52 K, 1423 kPa, Gas
  thermal conductivity: 0.0248 ± 0.0015 W/m/K
432.52 K, 2633 kPa, Liquid
  thermal conductivity: 0.03885 ± 0.00082 W/m/K
432.53 K, 1423 kPa, Gas
  thermal conductivity: 0.02469 ± 0.0015 W/m/K
432.53 K, 2633 kPa, Liquid
  thermal conductivity: 0.03887 ± 0.00082 W/m/K
432.54 K, 1420 kPa, Gas
  thermal conductivity: 0.02444 ± 0.0015 W/m/K
432.55 K, 1420 kPa, Gas
  thermal conductivity: 0.0244 ± 0.0015 W/m/K
432.56 K, 1978 kPa, Liquid
  thermal conductivity: 0.03769 ± 0.00079 W/m/K
432.57 K, 1705 kPa, Liquid
  thermal conductivity: 0.03737 ± 0.00079 W/m/K and 0.03712 ± 0.00079 W/m/K
432.57 K, 1979 kPa, Liquid
  thermal conductivity: 0.0379 ± 0.0008 W/m/K
432.62 K, 1709 kPa, Liquid
  thermal conductivity: 0.03738 ± 0.00079 W/m/K
432.63 K, 1422 kPa, Gas
  thermal conductivity: 0.02518 ± 0.0016 W/m/K
432.63 K, 1709 kPa, Liquid
  thermal conductivity: 0.0377 ± 0.0008 W/m/K
432.65 K, 1419 kPa, Gas
  thermal conductivity: 0.02476 ± 0.0015 W/m/K and 0.02477 ± 0.0015 W/m/K
432.67 K, 1705 kPa, Liquid
  thermal conductivity: 0.03805 ± 0.00081 W/m/K
432.68 K, 1705 kPa, Liquid
  thermal conductivity: 0.0373 ± 0.00079 W/m/K
432.68 K, 1977 kPa, Liquid
  thermal conductivity: 0.03782 ± 0.0008 W/m/K
432.68 K, 1978 kPa, Liquid
  thermal conductivity: 0.03794 ± 0.0008 W/m/K
432.68 K, 2631 kPa, Liquid
  thermal conductivity: 0.03893 ± 0.00082 W/m/K
432.68 K, 2632 kPa, Liquid
  thermal conductivity: 0.03891 ± 0.00082 W/m/K
432.69 K, 3940 kPa, Liquid
  thermal conductivity: 0.04069 ± 0.00085 W/m/K and 0.04067 ± 0.00085 W/m/K
